# Data published in patent publication US5968526A, “T cell epitopes of the major allergens from Dermatophagoides (house dust mite)” (Immulogic Pharamaceutical Corporation, priority 1995, dated 1999).
# System: T cell lines primed in vitro to Der p I
# Experiment: secondary proliferation of Der p I-primed T cell lines (Examples V, VII, XI)
# Format: cell-based, human
# Conditions: 33 positive experiments; FIG. 13
# Description: 10^7 PBMC from individual 543 were cultured in 10 ml RPMI-1640 containing 5% pooled human AB serum and supplemented with glutamine, penicillin, streptomycin and HEPES buffer in the presence of 20 μg/ml purified native Der p I/ml at 37° C. for 7 days. Viable cells were then purified by Ficoll-Hypaque centrifugation and cultured for 2 additional weeks in RPMI-1640/5% AB serum containing 5 units recombinant human IL-2/ml and 5 units recombinant human IL-4/ml. The resting T cells were then tested in a secondary proliferation assay to assess T cell responses to various house dust mite proteins and peptides. For assay, 2×10^4 resting T cells were cultured in 200 μl of RPMI-1640/5% AB serum for 3 days at 37° C. in the presence of 2×10^4 autologous Epstein-Barr virus transformed B cells (20,000 Rads) as antigen presenting cells with various concentrations of purified native Der p I or synthetic Der p I peptides. Each well then received 1 μCi tritiated thymidine for 16 hours. The counts incorporated were collected onto glass fiber filters and processed for liquid scintillation counting. Medium alone, acting as negative control, contained no allergen or peptide. The results of this experiment indicate that this particular patient responds with an S.I. of at least 2.0 to several peptides derived from the Der p I protein, including DP I-1, DP I-2, DP I-4, DP I-11, DP I-5, DP I-13, DP I-15, DP I-6.1, DP I-8, DP I-9, DP I-16, DP I-10 and DP I-17 (data not shown).
# The above procedure was followed with a number of other house dust mite allergic individuals except a) in individual cases, the length of time of cultivation with IL-2 and IL-4 varied; b) in individual cases, the T cells were primed with either purified native (N) or recombinant (R) Der p I protein at either 20 μg/ml or 10 μg/ml; and c) in individual cases, x-irradiated (3500 Rads) autologous PBMC were used as antigen presenting cells in the secondary proliferation assay.
# Individual results were considered positive and used if the individual responded to the Der p I protein and at least one peptide derived from Der p I at an S.I. of 2.0 or greater. The resting T cell lines primed with recombinant or native Der p I-stimulated PBMC were tested for reactivity to synthetic Der p I peptides. The maximum response for each peptide in a titration of the antigen is expressed as the T cell stimulation index (S.I.). The S.I. is the counts-per-minute (CPM) incorporated by cells in response to the peptide divided by the CPM incorporated by cells in medium only. […] However, only individual S.I. values greater than or equal to 2.0 (a response two-fold or greater over background), referred to herein as "positive" results, were used in calculating mean T cell stimulation indices for each peptide for the patient or group of patients tested. […] The T cell stimulation index is calculated by: [formula]
# The bar represents the cumulative rank of the peptide response in the group of patients. To determine the cumulative rank, the 5 peptides with the highest S.I. in each individual were determined and assigned a numerical rank in descending order, with 5 representing the strongest response. The ranks for each peptide were then summed in the group of patients to determine the cumulative rank for the peptide. […] Given the percent positive and the mean T cell stimulation index, the positivity index (P.I.) for each peptide can be calculated.
# The Der p I and Der f I proteins are very homologous (81% identity). Thus, experiments, similar to those of Example V, were carried out to determine the T cell responses of Der p I primed T cell lines when challenged with various Der p I peptides and substantially matching […].
# The results of T cell studies using selected peptides derived from the Der p I, the Der f I, the Der p II and the Der f II proteins are shown in FIGS. 13-18a-d. […]
row,Substance,T cell response to selected Der p I peptides
1,DP I-22.1: Der p I peptide (AFSGVAATESAYLAHRNQSLDLAEQELVD),respond significantly
2,DP I-23.2: Der p I peptide (DTIPRGIEYIQHNGVVQESYYRYVAREQS),respond significantly
3,DP I-25.2: Der p I peptide (QIYPPNANKIREALAQTHSAIA),respond significantly
4,DP I-28.1: Der p I peptide (NIVGYSNAQGVDYWIVRNSWDTNWGDNGY),respond significantly

# Same assay, conditions: Der p I primed; 14 positive experiments; FIG. 7
row,Substance,T cell response to Der f I peptides
1,"DF I-1: Der f I peptide, amino acid residues 1-20 (TSACRINSVNVPSELDLRSLR)",respond significantly
2,DF I-3: Der f I peptide (TVTPIRMQGGCGSCWAFSGVAATESAYLA),respond significantly
3,DF I-4: Der f I peptide (VAATESAYLAYRNTSLDLSEQ),respond significantly
4,DF I-6: Der f I peptide (YPPDVKQIREALFQTHTAIAVIIG),respond significantly
5,DF I-11: Der f I peptide (YRNTSLDLSEQELVDCASQHGC),respond significantly
6,DF I-12: Der f I peptide (ELVDCASQHGCHGDTIPRGIE),respond significantly
7,DF I-15: Der f I peptide (HYGISNYCQIYPPDVKQIREAL),respond significantly

# Same assay, conditions: Der p I primed; 30 positive experiments; FIG. 15a
row,Substance,T cell response to selected Der f I peptides
1,DF I-21.1: Der f I peptide (TSACRINSVNVPSELDLRSLRTVTPIRMQ),respond significantly
2,DF I-21.2: Der f I peptide (RINSVNVPSELDLRSLRTVTPIRMQ),respond significantly
3,DF I-23.1: Der f I peptide (EYIQQNGVVEERSYPYVAREQRCRRPNSQ),respond significantly
4,DF I-23.2: Der f I peptide (DTIPRGIEYIQQNGVVEERSYPYVAREQR),respond significantly
5,DF I-25.1: Der f I peptide (QIYPPDVKQIREALTQTHTAIAVIIGIKD),respond significantly
6,DF I-26.1: Der f I peptide (IIGIKDLRAFQHYDGRTIIQHDNGYQ),respond significantly
7,DF I-27.1: Der f I peptide (HDNGYQPNYHAVNIVGYGSTQGDDY),respond significantly

# Same assay, conditions: mean S.I. × percent responders; 33 patients
row,Substance,positivity index (P.I.)
1,DP I-23.2: Der p I peptide (DTIPRGIEYIQHNGVVQESYYRYVAREQS),at least 150
2,DP I-25.2: Der p I peptide (QIYPPNANKIREALAQTHSAIA),at least 150

# Same assay, conditions: overlapping Der p I peptides; 33 positive experiments
row,Substance,T cell reactivity
1,DP I-5: Der p I peptide (GDTIPRGIEYIQHNGVVQESYYRYVARE),significant regions of T cell reactivity

# System: T cell lines primed in vitro to Der f I
# Experiment: secondary proliferation of Der f I-primed T cell lines (Examples VI, VII, XI)
# Format: cell-based, human
# Conditions: 9 patients; FIG. 16a / 16b
# Description: Experiments similar to those of Example V were performed to determine. the T cell-reactive areas of the Der f I protein. For example, PBMC from house dust mite-allergic patient 783 were isolated as described in Example V and were stimulated in vitro-- with recombinant purified Der f I at 20 μg/ml. The results of the proliferation assay with Der f I peptides using x-irradiated (3500 Rads) autologous PBMC as antigen presenting cells indicate that T cells from this patient respond to the peptides DF I-8.1, DF I-9, DF I-6, DF I-10, DF I-2.1, DF I-3, DF I-11, DF I-5, DF I-1, and DF I-17 (data not shown).
# The above procedure was followed in a number of patients except in individual cases, T cell lines were primed with affinity purified Der f I at 20 μg/ml or at 10 μg/ml and x-irradiated (25,000 Rads) autologous Epstein-Barr virus transformed B cells were used as antigen presenting cells. […]
# Similarly, the procedure described in Example VI was followed with T cell lines from 9 patients primed in vitro to the Der f I protein then analyzed for response to selected peptides derived from the protein. The data was analyzed as described in Example VI. […]
row,Substance,"stimulation index, rank in group"
1,DF I-22.1: Der f I peptide (AFSGVAATESAYLAYRNTSLDLSEQELVD),highest stimulation indexes
2,DF I-25.1: Der f I peptide (QIYPPDVKQIREALTQTHTAIAVIIGIKD),highest stimulation indexes

# Same assay, conditions: Der f I primed; 8 positive experiments; FIG. 8
row,Substance,T cell response to Der p I peptides
1,DP I-5: Der p I peptide (GDTIPRGIEYIQHNGVVQESYYRYVARE),respond significantly

# Same assay, conditions: overlapping Der f I peptides; 16 positive experiments; FIG. 6
row,Substance,T cell reactivity
1,"DF I-1: Der f I peptide, amino acid residues 1-20 (TSACRINSVNVPSELDLRSLR)",significant areas of T cell reactivity
2,DF I-3: Der f I peptide (TVTPIRMQGGCGSCWAFSGVAATESAYLA),significant areas of T cell reactivity
3,DF I-4: Der f I peptide (VAATESAYLAYRNTSLDLSEQ),significant areas of T cell reactivity
4,DF I-5: Der f I peptide (GDTIPRGIEYIQQNGVVEERSYPYVARE),significant areas of T cell reactivity
5,DF I-6: Der f I peptide (YPPDVKQIREALFQTHTAIAVIIG),significant areas of T cell reactivity
6,DF I-7: Der f I peptide (TQTHTAIAVIIGIKDLRAFQHYDGRT),significant areas of T cell reactivity
7,DF I-8.1: Der f I peptide (IKDLRAFQHYDGRTIIQHDNGYQPNY),significant areas of T cell reactivity
8,DF I-11: Der f I peptide (YRNTSLDLSEQELVDCASQHGC),significant areas of T cell reactivity
9,DF I-14: Der f I peptide (QRCRRPNSQHYGISNYCQI),significant areas of T cell reactivity

# Same assay, conditions: patient 783; recombinant Der f I primed; data not shown
row,Substance,T cell response
1,"DF I-1: Der f I peptide, amino acid residues 1-20 (TSACRINSVNVPSELDLRSLR)",respond
2,DF I-2.1: Der f I peptide (ELDLRSLRTVTPIRMQGGCGSCWAFSG),respond
3,DF I-3: Der f I peptide (TVTPIRMQGGCGSCWAFSGVAATESAYLA),respond
4,DF I-5: Der f I peptide (GDTIPRGIEYIQQNGVVEERSYPYVARE),respond
5,DF I-6: Der f I peptide (YPPDVKQIREALFQTHTAIAVIIG),respond
6,DF I-8.1: Der f I peptide (IKDLRAFQHYDGRTIIQHDNGYQPNY),respond
7,DF I-10: Der f I peptide (QGDDYWIVRNSWDTTWGDSGYGYF),respond
8,DF I-11: Der f I peptide (YRNTSLDLSEQELVDCASQHGC),respond
9,DF I-17: Der f I peptide (GDSGYGYFQAGNNLMMIEQYPYVVIM),respond

# System: T cell lines primed in vitro to Der p II
# Experiment: secondary proliferation of Der p II-primed T cell lines (Examples VIII, X, XI)
# Format: cell-based, human
# Conditions: Der p II primed; 26 positive experiments; FIG. 12
# Description: Experiments similar to those of Example V were performed to determine the T cell-reactive areas of the Der p II protein. For example, PBMC from house dust mite-allergic patient 348 were isolated as described in Example V and were stimulated in vitro with 20 μg/ml purified native Der p II.
# The above procedure was followed with a number of patients except in individual cases, T cell lines were primed with recombinant Der p II at 20 μg/ml or at 3 μg/ml and x-irradiated (3500 Rads) autologous PBMC were used as antigen-presenting cells. The data was analyzed as described in Example V, except the ranked sum of peptide responses was analyzed assigning a value of 3, 2 or 1 to the three highest S.I. responses.
# A study similar to that described in Example VII was carried out to determine the T cell cross-reactivity of the Der p II and Der f II proteins. T cells primed with the Der f II protein were challenged with various Der f II peptides and a set of substantially matching Der p II peptides.
# Another experiment following the procedure described in Example VIII analyzed the response of 29 patients primed in vitro to the Der p II protein and challenged with selected peptides derived from the Der p II sequence.
row,Substance,T cell response to Der f II peptides
1,DF II-18: Der f II peptide (DAKYTWNVPKIAPKSENVVVTVKLVG),respond significantly

# Same assay, conditions: overlapping Der p II peptides; 26 positive experiments; FIG. 9
row,Substance,T cell reactivity
1,DP II-2: Der p II peptide (HEIKKVLVPGCHGSEPCIIHRGKPF),significant T cell reactivity

# Same assay, conditions: patient 348; native Der p II primed; data not shown
row,Substance,T cell response
1,DP II-2: Der p II peptide (HEIKKVLVPGCHGSEPCIIHRGKPF),responds well
